The values below come from patent US4292314A, “Cardioactive 12-dehydrodigoxin-oximes” (Boehringer Mannheim GmbH, priority 1979, dated 1981).

The nature of one data set: in vivo. The following applies: cat, in vivo. As to the method:
(§1) The pharmacological action of the new compounds according to the present invention was determined by the comparison of 12-dehydrodigoxin oxime (Compound 1 from) and 12-dehydrodigoxin-o-methyloxime (Compound 7 from) with digoxin, which is a known pharmaceutical for the treatment of cardiac insufficiency, using the following experimental procedure:
(§2) The positive inotropic and cardiotoxic action was tested on cats with pentobarbital-induced heart insufficiency. Increasing dosages were injected at intervals of 10 minutes, so that the total dosage increased in each case by the factor √2. The criterion for the therapeutically relevant, positively inotropic action was the increase of the maximum pressure increase rate by 1.5 or 3.0 mm. Hg/sec (DE1.5 and DE3.0). The quotient from both values is a measure for the steepness of the dosage activity line.
(§3) The measure for the cardiotoxicity was the dosage at which the first disturbances of the induction of stimulation took place. The point of time of the commencement of arrhythmias as ascertained from the electrocardiogram and the related dosage calculated by interpolation. The quotient from this cardiotoxic dosage and the DE1.5 served as a measure for the therapeutic breadth.

The test system of data set [1] is cats with pentobarbital-induced heart insufficiency. The experiment in a line: animal or person. The following applies: for ED (1.5 mmHg/sec increase) / ED (3.0 mmHg/sec increase): Felis catus, 10 min; for ED (1.5 mmHg/sec increase): read-out: DE1.5; for ED (3.0 mmHg/sec increase): read-out: DE3.0; for quotient of DE3.0 and DE1.5, steepness of the dosage activity line: cats, fractionated injection. As to the method:
as §1, §2, §3

A short description of data set [2]: Pharmacokinetic investigations on awake cats, intravenous injection of 3H-marked test compounds. It is filed as in vivo, cat. The following applies: for distribution volume / elimination constant / excretion in urine: awake cats, i.v., digoxin 30 μg./kg., Cpd. 1 and Cpd. 7 100 μg./kg.; for excretion in urine: urine collected for 14 days; for dosage needed to achieve the same plasma concentration, relative to digoxin: from total clearance. How it is done:
Pharmacokinetic investigations were carried out on awake cats, the test compounds being injected intravenously in the ^3 H-marked form. Over the course of 48 hours, blood samples were taken via an implanted catheter for the determination of the radioactivity in the plasma. The urine was collected for 14 days. The elimination constant was calculated from the decrease of the plasma concentration and the amount excreted in the urine.

The conditions of data set [3]: humans; cited from earlier work.

Like-named read-outs stand apart in the source and are kept apart here.

As to `C[C@H]1O[C@@H](O[C@H]2[C@@H](O)C[C@H](O[C@H]3[C@@H](O)C[C@H](O[C@H]4CC[C@@]5(C)[C@H](CC[C@@H]6[C@@H]5CC(=NO)[C@]5(C)[C@@H](C7=CC(=O)OC7)CC[C@]65O)C4)O[C@@H]3C)O[C@@H]2C)C[C@H](O)[C@@H]1O` [Compound 1, 12-Dehydrodigoxin oxime], in “in vivo”, the TD50 was 0.51 mg/kg and the selectivity ratio came to 4.85. Further, in data set [1], the ED (1.5 mmHg/sec increase) turned out to be 0.105 mg/kg; the ED (3.0 mmHg/sec increase) worked out at 0.236 mg/kg; the “quotient of DE3.0 and DE1.5, steepness of the dosage activity line” value (from here on “quotient”) was determined as 1.98. Besides, in data set [2], the distribution volume amounted to 2.74 kg⁻¹, the elimination constant came out at 0.0258 h⁻¹ and the excretion in urine is on record as 30 % of dose. For the same compound, the “dosage needed to achieve the same plasma concentration, relative to digoxin” value in data set [2] (cats) is recorded as “about 45 % of the dosage of digoxin”. Also, the “elimination constant compared with digoxin” value in data set [2] (in words, cats) is “even greater”.
On to `CON=C1C[C@H]2[C@@H](CC[C@@H]3C[C@@H](O[C@H]4C[C@H](O)[C@H](O[C@H]5C[C@H](O)[C@H](O[C@H]6C[C@H](O)[C@H](O)[C@@H](C)O6)[C@@H](C)O5)[C@@H](C)O4)CC[C@@]32C)[C@@]2(O)CC[C@H](C3=CC(=O)OC3)[C@@]12C` [Compound 7, 12-Dehydrodigoxin--O-methyloxime], for which, in the data set “in vivo”, the TD50 was determined as 1.37 mg/kg and the selectivity ratio was determined as 4.1. For the same compound, in data set [1], the ED (1.5 mmHg/sec increase) is 0.334 mg/kg; the ED (3.0 mmHg/sec increase) is 0.817 mg/kg; the “quotient” value was 3.56. The “dosage activity line compared with digoxin” value in data set [1] (in words) is reported as “flatter than in the case of digoxin”. In data set [2], the distribution volume is 1.47 kg⁻¹, the elimination constant came out at 0.0143 h⁻¹ and the excretion in urine is listed as 31 % of dose. Also, in data set [2] (cats), the “dosage needed to achieve the same plasma concentration, relative to digoxin” value is on record as 13 % of the dosage of digoxin. For the same compound, in data set [2] (in words, cats), the “distribution volume compared with digoxin” value is on record as “lower distribution volume”, the “elimination constant compared with digoxin” value was “about equally as great as for digoxin” and the “total clearance compared with digoxin” value is given as “lower total clearance”.
For the compound `C[C@H]1O[C@@H](O[C@H]2[C@@H](O)C[C@H](O[C@H]3[C@@H](O)C[C@H](O[C@H]4CC[C@@]5(C)[C@H](CC[C@@H]6[C@@H]5C[C@@H](O)[C@]5(C)[C@@H](C7=CC(=O)OC7)CC[C@]65O)C4)O[C@@H]3C)O[C@@H]2C)C[C@H](O)[C@@H]1O` [digoxin], in “in vivo”, the TD50 turned out to be 0.33 mg/kg and the selectivity ratio is 2.75. Also, in data set [1], the ED (1.5 mmHg/sec increase) came to 0.12 mg/kg; the ED (3.0 mmHg/sec increase) came out at 0.253 mg/kg; the “quotient” value is listed as 2.28. Moreover, in data set [2], the distribution volume came out at 13.3 kg⁻¹, the elimination constant is 0.01214 h⁻¹ and the excretion in urine is recorded as 42.8 % of dose. Besides, in data set [3], the elimination constant result was “about 0.015 h^-1”.
